In patent publication US9096547B2, “Sodium salt of 6-fluoro-3-hydroxy-2-pyrazine carboxamide” (Toyama Chemical Co., Ltd., priority 2010, dated 2015):

Key:
[1] = Stability (1): appearance after standing at 60° C. for 1 month; assay type: physicochemical; conditions: stand still at 60° C. for 1 month
Method: The preparations of Examples 1, 7, 9, 10, 11, 12, 25, 28 and 29 were allowed to stand still at 60° C. for 1 month and then their appearance was observed.

[2] = Stability (2): appearance after irradiation by a D65 lamp; assay type: physicochemical; conditions: irradiated (1,200,000 lx·hr) by a D65 lamp
From the text: The preparations of Examples 1, 10, 15, 16, 22 and Comparative Example 1 were irradiated (1,200,000 lx·hr) by a D65 lamp (FLR20S-D-EDL-D65/M) and then their appearance was observed.

## NC(=O)c1nc(F)cnc1O.[Na] [Example 1, sodium salt of 6-fluoro-3-hydroxy-2-pyrazinecarboxamide]
[1]
  appearance change: appearance change was not observed
[2]
  appearance change: appearance change was not observed
